How the values were obtained:
Assay type in all cases: cell-based
RAS G12D protein = molecular target: T1, RAS G12D protein (Homo sapiens, UniProt P01116, G12D); experiment: Protein degradation study (western blot) in Aspc-1 cells; settings: for percent protein degradation at 0.005 µM / percent protein degradation at 0.05 µM: ASPC1, 24 h, Aspc-1 cells, 24 hours, read-out: Rate of protein degradation (%); for percent protein degradation at 0.005 µM: 0.005 μM compound; for percent protein degradation at 0.05 µM: 0.05 μM compound; for Dmax: ASPC1, G12D in Aspc-1 cells; for DC50: half-maximum degradation concentration on G12D in Aspc-1 cells
T1 construct: host or cells: Aspc-1 (AsPC-1) cells
Procedure: Aspc-1 (Cobioer, CBP60546) cells in exponential growth phase were inoculated on a 6-well cell culture plate (Corning, 3516) at density of 1E6/well; and cells in the plate were cultured in a 37° C. incubator containing 5%-carbon dioxide. The next day, test compounds were dissolved in DMSO (Sigma, RNBF5902) for the preparation of a 10-mM concentration stock solution. The stock solution was diluted with complete medium (RPMI-1640 supplemented with 10% fetal bovine serum, 1% penicillin-streptomycin), yielding working solutions of various concentrations. The plate, after the addition of compounds, was placed in a 5% carbon dioxide incubator, and incubated at 37° C. for 24 hours (final DMSO concentration was 0.1%). The plate was then removed from the incubator, and the cells were washed twice with precooled PBS (Gibco, 14190250), followed by addition of 80 μL RIPA (CST, 9806S) lysis buffer (containing protease inhibitor (Invitrogen™, AM2696)) to each well. The adherent cells were scraped off with a cell scraper, and the cell lysate was transferred to a 1.5 mL centrifuge tube followed with a 30-minute incubation on ice. The lysate was then clarified with centrifugation at 12000 rpm for 10 min at 4° C. The supernatant was transferred into a new 1.5 mL centrifuge tube, and protein concentration was measured with BCA protein detection kit (Thermo Fisher, 23225). G12D protein level was assessed by western blot. A mixture of cell lysate (40 μL) and loading buffer (10 μL, 5×SDS (Beyotime, P0015L)) was denatured in a water-bath at 95° C. for 10 min. The denatured protein sample, at 30 μg/well, was loaded into a corresponding well of a 4-20% Bis-Tris gel (Kingsley, M00656). Protein samples were initially electrophoresed at 80 V for 30 minutes, followed by 120 V for 40 minutes, until the bromophenol blue strip ran to an appropriate position. After electrophoresis, iBlot2 (Life Technologies, IB21001) was used to transfer the separated samples onto PVDF film. The PVDF membrane was washed with double-distilled water and then blocked in TBST (Thermo Scientific, 28360) buffer containing 5% non-fat milk, for 2 hours. Blocked membrane was rinsed with tris-buffered saline tween-2 (Thermo Scientific, 28360, TBST) three times, 10 minutes each. Membrane was then incubated with 1:1000 diluted RAS Gi2D primary antibody (CST, cat #14429S) overnight at 4° C. Membrane was rinsed in a way described previously followed by 1 hour incubation of secondary antibody at room temperature. After washing the film for three times with TBST, ECL color developing solution was applied, and image was captured with Biorad Chemi Doc gel imager. The band gray value was quantified (Image Lab), and protein degradation level was calculated according to the following formulas:
Level of RAS G12D protein expression=(RAS G12D−compound/β-Actin)−compound/(RAS G12D−DMSO/β-Actin−DMSO)
Level of degradation (%)=(1−Rate of RAS G12D protein expression)×100
Symbols of −, +, ++, +++, ++++, +++++ indicate that the degradation level of Ras protein induced by test compounds was 10% or less, 10 to 30%, 30 to 60%, 60 to 70%, 70 to 75%, and greater than 75%, respectively. “NT” indicates not tested.
“NT” indicates not tested.

GP2D cells (G12D) = experiment: Cell proliferation study (Cell Titer Glo, 72 hours), GP2D
Procedure: (§1) Aspc-1(Cobioer, CBP60546), GP2D(Cobioer, CBP60683), Mia paca2 (Cobioer, CBP60136), NCI-H358 (Cobioer, CBP60544), H727 (Cobioer, CBP60182), MKN-1 (Cobioer, CBP60486), and PSN1 (Cobioer, CBP61215) cells in exponential growth phase were seeded into a 96-well plate (Greiner, 655090) at density of 3E3/well. Cells were cultured overnight at 37° C. with 5% CO2. On the next day, cells were treated with compound at various concentrations for 72 hours in 37° C., 5% CO2 incubator (final DMSO concentration was 0.1%). After treatment, 100 μL Cell Tier Glo (Promega, G7573) were added to every well on the cell plate and incubated at room temperature (RT) for 10 minutes. Cell growth status was measured with Cell Tier Glo (Promega, G7573) following manufacturer's directions. Inhibition level was calculated according to the following formula: […]
(§2) where the “Maximum Signal” are signal of wells containing DMSO without compound; the “Minimum Signal” are signal of wells recorded at Day 0 prior to commencement of the experiment; and the “Test compound signal” are signal of wells containing compound at established concentrations.
(§3) The inhibition curve was obtained with GraphPad 7.0 software using four-parameter equation.

AsPc-1 cells (G12D) = experiment: Cell proliferation study (Cell Titer Glo, 72 hours), AsPc-1; settings: Homo sapiens, ASPC1
Procedure: as §1, §2, §3

NCI-H358 cells (G12C) = experiment: Cell proliferation study (Cell Titer Glo, 72 hours), NCI-H358; settings: Homo sapiens
Procedure: as §1, §2, §3

NCI-H727 cells (G12V) = experiment: Cell proliferation study (Cell Titer Glo, 72 hours), NCI-H727; settings: Homo sapiens
Procedure: as §1, §2, §3

T1 sequence (P01116 1-188 isoform P01116-2 G12D): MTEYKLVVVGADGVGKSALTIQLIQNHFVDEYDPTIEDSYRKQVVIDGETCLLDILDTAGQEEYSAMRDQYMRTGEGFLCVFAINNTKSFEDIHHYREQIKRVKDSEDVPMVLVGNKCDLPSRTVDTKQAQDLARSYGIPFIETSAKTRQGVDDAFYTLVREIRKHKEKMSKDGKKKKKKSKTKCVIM

Structure (SMILES)	percent protein degradation at 0.005 µM (RAS G12D protein) [%]	percent protein degradation at 0.05 µM (RAS G12D protein) [%]	IC50 (GP2D cells (G12D)) [nM]	IC50 (AsPc-1 cells (G12D)) [nM]	Dmax (RAS G12D protein) [%]	DC50 (RAS G12D protein) [nM]	IC50 (NCI-H358 cells (G12C)) [nM]	IC50 (NCI-H727 cells (G12V)) [nM]
CCc1c(F)ccc2cc(O)cc(-c3ncc4c(N5CCC[C@]6(CCO6)C5)nc(OCC5(CN6CC(C(=O)N7CCC(c8ccc9c(C%10CCC(=O)NC%10=O)nn(C)c9c8)CC7)C6)CC5)nc4c3F)c12 (stereo partly shown) [Compound 207]	30 to 60	60 to 70	3.53	198				
CCc1c(F)ccc2cc(O)cc(-c3ncc4c(N5CCC[C@]6(CCO6)C5)nc(OCC5(CN6CCC7(CC6)CC(N6CCC(c8ccc9c(=O)n(C%10CCC(=O)NC%10=O)ccc9c8)CC6)C7)CC5)nc4c3F)c12 (stereo partly shown) [Compound 234]	30 to 60	70 to 75		43.2	65	11 to 50	17.9	4.4
CCc1c(F)ccc2cc(O)cc(-c3ncc4c(N5CCC[C@@](C)(O)C5)nc(OCC5(CN6CCC7(CC6)CC(N6CCC(c8cc9c(cc8F)c(N8CCC(=O)NC8=O)nn9C)CC6)C7)CC5)nc4c3F)c12 [Compound 235]	30 to 60	> 75		63.5	71	1 to 10	10.3	0.8
CCc1c(F)ccc2cc(O)cc(-c3ncc4c(N5CCC[C@]6(CCO6)C5)nc(OCC5(CN6CCC(CN7Cc8cc9c(cc8C7)C(=O)N(C7CCC(=O)NC7=O)C9=O)CC6)CC5)nc4c3F)c12 (stereo partly shown) [Compound 237]	10 to 30	10 to 30						
CCc1cccc2cc(O)cc(-c3ncc4c(N5CCC[C@]6(CCO6)C5)nc(OCC5(CN6CCC7(CC6)CC(N6CCC(c8cc9c(cc8F)c(N8CCC(=O)NC8=O)nn9C)CC6)C7)CC5)nc4c3F)c12 [Compound 238]	> 75	30 to 60			73	11 to 50		
Cn1nc(N2CCC(=O)NC2=O)c2cc(F)c(C3CCN(C4CC5(CCN(CC6(COc7nc(N8CCC[C@]9(CCO9)C8)c8cnc(-c9cc(O)cc%10ccc(F)c(F)c9%10)c(F)c8n7)CC6)CC5)C4)CC3)cc21 [Compound 241]	60 to 70	30 to 60			71	11 to 50		
CCc1c(F)ccc2cc(O)cc(-c3ncc4c(N5CCC[C@@](C)(O)C5)nc(OCC5(CN6CCC7(CC6)CC(N6CCC(c8cc9c(cc8F)c(N8CCC(=O)NC8=O)nn9C)C(F)(F)C6)C7)CC5)nc4c3F)c12 (stereo partly shown) [Compound 243]	30 to 60	> 75			74	1 to 10		
CCc1c(F)ccc2cc(O)cc(-c3ncc4c(N5CCC[C@]6(CCO6)C5)nc(OCC5(CN6CCC(CN7CCC(c8ccc9ccn(C%10CCC(=O)NC%10=O)c(=O)c9c8)CC7)CC6)CC5)nc4c3F)c12 (stereo partly shown) [Compound 244]	30 to 60	30 to 60						

Source: patent publication US20240246963A1, “BIFUNCTIONAL COMPOUNDS AND PHARMACEUTICAL USES THEREOF” (RISEN (SUZHOU) PHARMA TECH CO., LTD., priority 2022, published 2024)
